Assay results as given in patent US6353001B1, “2-nitromethylidene/2-cyanimino/2-nitro-imino-pyrrolidines and piperidines, intermediates, and their use as pesticides” (Syngenta Investment Corporation, priority 1993, dated 2002).

Assays:
Myzus persicae [1] = experiment: Action against Myzus persicae (sprayed pea seedlings); type: in vivo; details: 400 ppm spray on infested pea seedlings, 20°, evaluation 3 to 7 days later, read-out: percentage reduction in the population (% activity)
Description: (§1) Action against Myzus persicae Pea seedlings are infested with Myzus persicae, then sprayed with a spray mixture comprising 400 ppm of test compound and then incubated at 20°. Evaluation is made 3 to 7 days later. The percentage reduction in the population (% activity) is determined by comparing the number of dead aphids on the treated plants with that on untreated plants.

Diabrotica balteata = experiment: Action against Diabrotica balteata (sprayed maize seedlings); type: in vivo; details: 144 h, 400 ppm spray on maize seedlings, 10 larvae in the second stage, evaluation 6 days later, read-out: percentage reduction in the population (% activity)
Description: Action against Diabrotica balteata Maize seedlings are sprayed with an aqueous emulsion comprising 400 ppm of test compound. After the spray coating has dried, the seedlings are populated with 10 Diabrotica balteata larvae in the second stage and placed in a plastics container. Evaluation is made 6 days later. The percentage reduction in the population (% activity) is determined by comparing the number of dead larvae on the treated plants with that on untreated plants.

Plutella xylostella = experiment: Action against Plutella xylostella caterpillars; type: in vivo; details: 72 h, 400 ppm spray on young cabbage plants, 10 caterpillars in the third stage, evaluation 3 days later, read-out: percentage reduction in the population and percentage reduction in feeding damage (% activity)
Description: (§2) Action against Plutella xylostella caterpillars Young cabbage plants are sprayed with an aqueous emulsion comprising 400 ppm of test compound. After the spray coating has dried, the cabbage plants are populated with 10 Plutella xylostella caterpillars in the third stage and placed in a plastics container. Evaluation is made 3 days later. The percentage reduction in the population and the percentage reduction in feeding damage (% activity) are determined by comparing the number of dead caterpillars and the feeding damage on the treated plants with that on untreated plants.

Heliothis virescens = experiment: Action against Heliothis virescens (sprayed soybean plants); type: in vivo; details: 144 h, 400 ppm spray on young soybean plants, 10 caterpillars in the first stage, evaluation 6 days later, read-out: percentage reduction in the population and percentage reduction in feeding damage (% activity)
Description: as §2, with “against Heliothis virescens” for “against Plutella xylostella caterpillars”, “Young soybean” for “Young cabbage”, “the” for “the cabbage”, “10 Heliothis virescens” for “10 Plutella xylostella”, “the first” for “the third”, “made 6” for “made 3”

Aphis craccivora = experiment: Action against Aphis craccivora (sprayed pea seedlings); type: in vivo; details: 400 ppm spray on infested pea seedlings, 20° C., evaluation 3 to 7 days later, read-out: percentage reduction in the population (% activity)
Description: as §1, with “Aphis craccivora” for “Myzus persicae”, “Aphis craccivora,” for “Myzus persicae,”, “20° C.” for “20°.”, “Aphis craccivora individuals” for “aphids”

Anthonomus grandis = experiment: Action against Anthonomus grandis (sprayed cotton plants); type: in vivo; details: 72 h, 400 ppm spray on young cotton plants, 10 adults, evaluation 3 days later, read-out: percentage reduction in the population and percentage reduction in feeding damage (% activity)
Description: as §2, with “Anthonomus […]” for “Plutella xylostella caterpillars”, “cotton” for “cabbage”, “the” for “the cabbage”, “Anthonomus grandis adults” for “Plutella xylostella caterpillars in the third stage”, “beetles” for “caterpillars”

Nilaparvata lugens = experiment: Action against Nilaparvata lugens (sprayed rice plants); type: in vivo; details: 504 h, 400 ppm spray on rice plants, larvae in the 2nd and 3rd stages, evaluation 21 days later, read-out: percentage reduction in the population (% activity)
Description: (§3) Action against Nilaparvata lugens Rice plants are sprayed with an aqueous emulsion comprising 400 ppm of test compound. After the spray coating has dried, the rice plants are populated with Nilaparvata lugens larvae in the 2nd and 3rd stages. Evaluation is made 21 days later. The percentage reduction in the population (% activity) is determined by comparing the number of surviving plant hoppers on the treated plants with that on untreated plants.

Nephotettix cincticeps = experiment: Action against Nephotettix cincticeps (sprayed rice plants); type: in vivo; details: 504 h, 400 ppm spray on rice plants, larvae in the 2nd and 3rd stages, evaluation 21 days later, read-out: percentage reduction in the population (% activity)
Description: as §3, with “against Nephotettix cincticeps” for “against Nilaparvata lugens”, “the” for “the rice”, “with Nephotettix cincticeps” for “with Nilaparvata lugens”, “surviving leaf” for “surviving plant”

Ctenocephalides felis = experiment: Systemic action against Ctenocephalides felis (membrane blood feeding); type: in vivo; details: 50 ppm in blood, 37°, 20 adult fleas, evaluation 24 and 48 hours, read-out: percentage reduction in the population (% activity)
Description: Systemic action against Ctenocephalides felis 20 adult fleas of the Ctenocephalides felis species are placed in a flat round cage closed on both sides with gauze. A vessel sealed on the underside with a parafilm membrane is placed on the cage. The vessel contains blood comprising 50 ppm of test compound and maintained at a constant 37°. The fleas ingest the blood through the membrane. Evaluation is made 24 and 48 hours after the start of the test. The percentage reduction in the population (% activity) is determined by comparing the number of dead Ctenocephalides felis fleas when treated blood is used with that when untreated blood is used. The blood is replaced by fresh treated blood 24 hours after treatment.

Myzus persicae [2] = experiment: Systemic action against Myzus persicae (roots in spray mixture); type: in vivo; details: systemic: pea seedling roots in 400 ppm spray mixture, 20° C., evaluation 3 to 7 days later, read-out: percentage reduction in the population (% activity)
Description: Systemic action against Myzus persicae Pea seedlings are infested with Myzus persicae, then placed with their roots in a spray mixture comprising 400 ppm of test compound and then incubated at 20° C. Evaluation is made 3 to 7 days later. The percentage reduction in the population (% activity) is determined by comparing the number of dead aphids on the treated plants with that on untreated plants.

melting point [°C]	Structure (SMILES)	inhibition at 400 ppm (Myzus persicae [1]) [%]	inhibition at 400 ppm (Diabrotica balteata) [%]	inhibition at 400 ppm (Plutella xylostella) [%]	inhibition at 400 ppm (Heliothis virescens) [%]	inhibition at 400 ppm (Aphis craccivora) [%]	inhibition at 400 ppm (Anthonomus grandis) [%]	inhibition at 400 ppm (Nilaparvata lugens) [%]	inhibition at 400 ppm (Nephotettix cincticeps) [%]	inhibition at 50 ppm (Ctenocephalides felis) [%]	inhibition at 400 ppm (Myzus persicae [2]) [%]
179 to 181	O=[N+]([O-])C=C1NCCCC1Cc1ccc(Cl)nc1 (stereo not shown) [Compound 5.16, 3-(2-chloropyrid-5-yl-methyl)-2-nitromethylidene-piperidine]	> 80	> 80								
159 to 161	O=[N+]([O-])/C=C1\NCCC1Cc1ccc(Cl)nc1 (stereo not shown) [Compound 5.3, 3-(2-Chloropyrid-5-yl-methyl)2-nitromethylidene-pyrrolidine]	> 80		> 80	> 80	> 80	> 80	> 80	> 80	> 80	> 80
	CN1CCC(Cc2ccc(Cl)nc2)/C1=C/[N+](=O)[O-] (stereo not shown) [Compound 5.4, 3-(2-Chloropyrid-5-yl-methyl)-1methyl-2-nitromethylidene-pyrrolidine]	> 80					> 80	> 80	> 80		> 80
	CCN1CCC(Cc2ccc(Cl)nc2)/C1=C/[N+](=O)[O-] (stereo not shown) [Compound 5.5, 3-(2-Chloropyrid-5-yl-methyl)-1-ethyl-2-nitromethylidene-pyrrolidine]								> 80		
